Experimental findings from US9284298B2, “Pyrazolyl-pyrimidine derivatives as kinase inhibitors” (NERVIANO MEDICAL SCIENCES S.R.L., priority 2011, dated 2016) are described below.

The structures appear in SMILES notation. Counter-ions that a name gives are not always drawn.

The target in one experiment is MPS1 (Homo sapiens (Human), UniProt P33981). The experiment in a line: Biochemical assay for inhibitors of MPS1 kinase activity (trans-phosphorylation, Dowex). Conditions: 15 μM ATP, P38-tide substrate. The source says: Cloning, Expression and Purification of Recombinant MPS1 Full Length Protein.
Sequence of MPS1 (P33981 2-857): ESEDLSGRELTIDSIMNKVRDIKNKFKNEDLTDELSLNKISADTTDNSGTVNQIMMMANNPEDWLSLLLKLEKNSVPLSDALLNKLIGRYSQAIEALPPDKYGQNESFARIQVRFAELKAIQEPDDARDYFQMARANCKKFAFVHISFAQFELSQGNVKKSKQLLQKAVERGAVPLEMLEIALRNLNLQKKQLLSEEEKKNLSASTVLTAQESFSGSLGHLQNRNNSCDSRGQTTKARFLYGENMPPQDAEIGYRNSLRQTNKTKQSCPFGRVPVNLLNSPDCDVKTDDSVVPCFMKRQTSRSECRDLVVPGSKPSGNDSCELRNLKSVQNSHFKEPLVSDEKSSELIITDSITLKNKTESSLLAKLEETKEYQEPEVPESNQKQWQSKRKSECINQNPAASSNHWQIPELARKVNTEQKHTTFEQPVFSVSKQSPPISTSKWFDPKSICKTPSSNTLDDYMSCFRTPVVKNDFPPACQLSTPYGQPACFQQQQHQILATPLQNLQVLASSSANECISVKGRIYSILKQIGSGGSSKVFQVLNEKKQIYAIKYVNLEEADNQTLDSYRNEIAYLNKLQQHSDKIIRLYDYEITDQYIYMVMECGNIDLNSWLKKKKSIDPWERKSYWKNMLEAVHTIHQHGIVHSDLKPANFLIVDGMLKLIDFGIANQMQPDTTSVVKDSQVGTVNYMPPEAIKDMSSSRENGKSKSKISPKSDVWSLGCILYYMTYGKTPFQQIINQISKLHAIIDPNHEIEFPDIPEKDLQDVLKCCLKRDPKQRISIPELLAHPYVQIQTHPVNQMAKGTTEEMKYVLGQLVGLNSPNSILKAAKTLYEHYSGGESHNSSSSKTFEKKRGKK
MPS1 full length (corresponding to residues 2-857 of the full length sequence, see Swiss-Prot accession number P33981) was PCR amplified from the full-length human MPS1 gene present in house as clone pGEX4t_MPS1.
Baculoviruses were generated by cotransfecting Sf9 insect cells with the expression vector and the viral DNA using the BaculoGold® transfection kit (Pharmingen). Viral supernatant was recovered after 5 days and subjected to 3 rounds of amplification to increase viral titer. Recombinant protein was produced by infecting High5 insect cells. After 72 h of infection at 21° C., cells were recovered, pelletted and freezed at −80° C. For purification of recombinant protein, pellet was thawed, resuspended in lysis buffer (PBS, NaCl 150 mM, Glycerol 10%, CHAPS 0.1%, DTT 20 mM, protease and phosphatase inhibitors) and lysed by Gaulin. Lysate was cleared by centrifugation and loaded on a GST affinity column. After extensive wash, recombinant protein was cleaved by a specific protease and eluted by incubation.
To get a fully activated enzyme, the protein was then subjected to auto-phosphorylation in presence of ATP 1 mM at 25° C. for 2 h in kinase buffer (Hepes pH 7.5 50 mM, MgCl2 2.5 mM, MnCl2 1 mM, DTT 1 mM, phosphatase inhibitors); ATP was then removed with a desalting column.
Biochemical Assay for Inhibitors of MPS1 Kinase Activity The inhibitory activity of putative kinase inhibitors and the potency of selected compounds were determined using a trans-phosphorylation assay.
(§1) Specific peptide or protein substrates are trans-phosphorylated by their specific ser-thr or tyr kinase in the presence of ATP traced with ^33P-γ-ATP, and in the presence of their own optimal buffer and cofactors.
(§2) At the end of the phosphorylation reaction, more than 98% unlabeled ATP and radioactive ATP is captured by an excess of the ion exchange dowex resin; the resin then settles down to the bottom of the reaction plate by gravity.
(§3) Supernatant is subsequently withdrawn and transferred into a counting plate, then evaluated by β-counting.
The buffer for MPS1 assay was composed of HEPES 50 mM, at pH 7.5, with 2.5 mM MgCl2, 1 mM MnCl2, 1 mM DTT, 3 μM Na3VO4, 2 mM β-glycerophosphate and 0.2 mg/mL BSA.
The assay was run with a final concentration MPS1 of 5 nM, in the presence of 15 μM ATP and 1.5 nM ^33P-γ-ATP; the substrate was P38-tide, used at 200 μM.
Test compounds are received as a 1 mM solution in 100% DMSO, distributed into 96 or 384 well plates: • a) for percent inhibition studies (HTS), individual dilution plates at 1 mM are diluted at a 3× concentration (30 μM) in ddH2O (3% DMSO=final concentration) using a Beckman NX automated pipetting platform. […]

For a further experiment, the target named is PIM2 (Homo sapiens (Human), UniProt Q9P1W9). Put plainly: PIM2 kinase inhibition assay: Dowex technique. It counts as biochemical. Conditions: 4 μM ATP, Aktide substrate. The method, then: Method for PIM2 Kinase Inhibition Assay: Dowex Technique
Sequence of PIM2 (Q9P1W9 whole entry): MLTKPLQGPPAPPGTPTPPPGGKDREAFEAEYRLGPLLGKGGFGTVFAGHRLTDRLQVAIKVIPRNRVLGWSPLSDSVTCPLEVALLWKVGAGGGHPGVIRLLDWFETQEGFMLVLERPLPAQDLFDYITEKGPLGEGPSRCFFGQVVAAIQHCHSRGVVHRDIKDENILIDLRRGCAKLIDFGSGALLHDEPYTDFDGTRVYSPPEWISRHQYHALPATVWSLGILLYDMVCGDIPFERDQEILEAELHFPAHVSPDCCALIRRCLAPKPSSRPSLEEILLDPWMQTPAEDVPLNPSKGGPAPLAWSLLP
The buffer for PIM2 assay was composed of HEPES 50 mM, at pH 7.5, with 1 mM MgCl2, 1 mM DTT, 3 μM Na3VO4, and 0.2 mg/mL BSA.
Full-length human PIM2 was expressed and purified as described in Fedorov O, et al., PNAS 2007 104, 51, 20523-28.
Enzyme concentration=1.5 nM
Aktide substrate (Chemical Abstract Service Registry Number 324029-01-8)=5 μM
See above: same procedure as described for PIM1.

The target of the next experiment is PIM1 (Homo sapiens (Human), UniProt P11309). Put plainly: Biochemical assay for inhibitors of PIM1 kinase activity (trans-phosphorylation, Dowex). Conditions: 200 μM ATP, Aktide substrate. The method, then:
The short forms and abbreviations used herein have the following meaning: • Ci Curie • DMSO dimethylsulfoxide • KDa kiloDalton • microCi microCurie • mg milligram • microg microgram • ng nanogram • L liter • mL milliliter • μL microliter • M molar • mM millimolar • μM micromolar • nM nanomolar Biochemical Assay for Inhibitors of PIM1 Kinase Activity
The inhibitory activity of putative kinase inhibitors and the potency of selected compounds were determined using a trans-phosphorylation assay.
as §1, §2, §3
The buffer for PIM1 assay was composed of HEPES 50 mM, at pH 7.5, with 10 mM MgCl2, 1 mM DTT, 3 μM NaVO3, and 0.2 mg/mL BSA. […]
Data are analyzed by an internally customized version of the “Assay Explorer” SW package, which provides sigmoidal fitting of the ten-dilution curves for IC50 determination in secondary assay/hit confirmation routines.

Sequence of PIM1 (P11309 whole entry): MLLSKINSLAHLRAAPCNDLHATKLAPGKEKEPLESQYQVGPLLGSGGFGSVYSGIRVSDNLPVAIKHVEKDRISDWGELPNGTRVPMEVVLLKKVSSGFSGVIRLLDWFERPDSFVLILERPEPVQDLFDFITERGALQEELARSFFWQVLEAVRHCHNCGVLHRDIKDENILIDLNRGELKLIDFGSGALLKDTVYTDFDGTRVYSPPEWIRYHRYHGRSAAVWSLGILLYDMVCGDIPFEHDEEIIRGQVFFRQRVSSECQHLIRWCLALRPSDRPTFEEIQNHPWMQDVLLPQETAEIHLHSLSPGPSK

As to `CCc1cccc(CC)c1NC(=O)c1cc(-c2ccnc(Nc3ccc(N4CCN(C)CC4)cc3OC)n2)n(C)n1` [Compound 3, N-(2,6-diethylphenyl)-5-(2-{[2-methoxy-4-(4-methylpiperazin-1-yl)phenyl]amino}pyrimidin-4-yl)-1-methyl-1H-pyrazole-3-carboxamide], the IC50 (as a rule, the point on the concentration scale where inhibition reaches its midpoint) at MPS1 is below 200 nM.
In turn, `CCc1cccc(CC)c1NC(=O)c1cc(-c2ccnc(Nc3ccc(N4CCN(CCO)CC4)cc3OC)n2)n(C)n1` [Compound 8, N-(2,6-diethylphenyl)-5-[2-({4-[4-(2-hydroxyethyl)piperazin-1-yl]-2-methoxyphenyl}amino)pyrimidin-4-yl]-1-methyl-1H-pyrazole-3-carboxamide] had an IC50 at MPS1 below 200 nM.
`CCc1cccc(CC)c1NC(=O)c1cc(-c2ccnc(Nc3ccc(N4CCN(C)CC4)cc3OC)n2)[nH]n1` [Compound 11, N-(2,6-diethylphenyl)-5-(2-{[2-methoxy-4-(4-methylpiperazin-1-yl)phenyl]amino}pyrimidin-4-yl)-1H-pyrazole-3-carboxamide] registered an IC50 at MPS1 below 200 nM.
As to `CCc1cccc(CC)c1NC(=O)c1cc(-c2ccnc(Nc3ccc(N4CCN(CCO)CC4)cc3OC)n2)[nH]n1` [Compound 13, N-(2,6-diethylphenyl)-5-[2-({4-[4-(2-hydroxyethyl)piperazin-1-yl]-2-methoxyphenyl}amino)pyrimidin-4-yl]-1H-pyrazole-3-carboxamide], the IC50 at MPS1 was below 200 nM.
`CSc1nccc(-c2cc(C(N)=O)nn2C2CCNCC2)n1` [Compound 21, 5-[2-(methylsulfanyl)pyrimidin-4-yl]-1-(piperidin-4-yl)-1H-pyrazole-3-carboxamide hydrochloride]: the IC50 on PIM2 and against PIM1 was below 10 µM throughout.
